Experiments:
[1] = test system: E. faecalis CL 4877 (VanB); experiment: microbe, parasite or virus in culture; assay type: cell-based; set-up: CL4877 (in vitro testing): unit not given here; conditions: Tables 7 and 8; unit not given
Description: (§1) National Committee for Clinical Laboratory Standards (NCCLS) guidelines [Methods for Dilution Antimicrobial Susceptibility Tests for Bacteria that Grow Aerobically-Fourth Edition; Approved Standard (NCCLS Document M7-A4, January 1997)] are used to establish the assay, although variations are made to optimize the published method according to the specific needs of the present investigation.
(§2) The test panel currently includes eight enterococci and 13 staphylococci, which are selected based upon their antibiotic susceptibility profiles. The methicillin-sensitive Staphylococcus aureus (MSSA) strain MB2985 (Smith isolate) is used to assesses the potential for serum protein binding of the compounds. The paired Gram-negative strains ASP #49 (envA-) and ASP #50 (envA+) (M. Salvatore/N. Lee) are included to judge membrane effects. Table 3 presents a detailed description of the strains included in the panel, including some of the sources of the strains of bacteria.
(§3) The glycopeptide antibiotic teicoplanin is included whenever possible.
(§4) TSB, containing 10% HS* for vancomycin intermediate S. aurcus/methicillin-resistant S. aureus (VISA/MRSA) strains, is inoculated from an appropriate source (frozen broth or agar slant) and grown approximately 17 hr at 35° C. with shaking at 220 rpm. Cultures are grown in tubes with a volume of 5 ml for enterococci and 2 ml for all other strains.
(§5) Four milliliter (4 ml) overnight culture is added to 36 ml physiological saline to obtain tenfold dilutions (enterococci). Overnight culture (0.4 ml) is added to 39.6 ml saline to obtain 100-fold dilutions (all strains except enterococci). Diluted cultures are maintained on ice until time of inoculation of test plates.
(§6) The number of CFU/mL is determined on BHI agar plates, although this is not done routinely because titers of overnight cultures are relatively constant. The test media include: • BHI for enterococci and VISA/MRSA; • MH II (i.e., cation-adjusted Mueller-Hinton broth) for MRS, MSS and E. coli.; • MH II+HSA for MSSA is prepared as follows: • a. 2×MHII+86mg/ml HSA • b. Dissolve 4.3 g HSA in 50 ml autoclaved 2x MH II. • c. pH to 7.0 by adding 2M MOPS, sodium. • d. Filter sterilize using 0.22 μm Coming cellulose acetate filter, used because of reported low protein binding. • e. 1×MH II+43 mg/ml HSA • f. Dilute the 2×medium twofold and filter as above. 5.8.6. Preparation of Test Plates
(§7) Using a Denley liquid handling system (or similar automatic device), 100 μ1×medium is added to each well in columns 2-12 of a 96-well microtiter dish. Using a multichannel pipettor, 100 μl 2×medium is added to each well in column 1. Plates may be filled on the day prior to assay, wrapped in plastic bags and refrigerated.
(§8) Vancomycin, Schering 29482, and teicoplanin are prepared on a weight per volume basis using 10 mM 3-(N-morpholino)propane-sulfonic acid (MOPS) buffer pH 7. Test compounds are received in solution in appropriate solvent (typically as 1 mg/ml in DMSO) or are dissolved in appropriate solvent prior to further dilution in 10 mM MOPS buffer, ph7. Consistent with NCCLS guidelines, antibiotics are handled aseptically but are not otherwise sterilized.
(§9) 100 μl appropriately diluted antibiotic solution is added to the first well of the designated row of the 96-well microtiter dish and serially diluted by twofold across the row using the Denley liquid handling system. With the aid of a Dynatech NEC 2000 inoculator, each well of the microtiter dish is inoculated with 1.5 μl diluted overnight culture, yielding approximately 1-5×10^6 CFU/ml for enterococci and approximately 3-7×10^5 CFU/ml for all other strains. Dishes are placed in stacks of no more than five, wrapped in plastic bags and incubated at 35° C. • Indication of result(s) type (% INH, IC50, Zone size, etc.) • MIC=minimum inhibitory concentration ps 5.8.9. Interpretation of the Results on the Basis of Activity […]

[2] = test system: CL 4931, CL 5053, CL 5242 and CL 4877; assay type: cell-based, E. faecium, E. faecalis; set-up: unit not given here; conditions: mean of CL4931, CL5053, CL5242, CL4877; unit not given
Description: as §1, §2, §3, §4, §5, §6, §7, §8, §9

[3] = test system: E. faecium CL 5242 (VanA); experiment: microbe, parasite or virus in culture; assay type: cell-based; set-up: CL5242 (in vitro testing): unit not given here; conditions: Tables 7 and 8; unit not given
Description: as §1, §2, §3, §4, §5, §6, §7, §8, §9

[4] = test system: E. faecium CL 5053 (VanA); experiment: microbe, parasite or virus in culture; assay type: cell-based; set-up: CL5053 (in vitro testing): unit not given here; conditions: Tables 7 and 8; unit not given
Description: as §1, §2, §3, §4, §5, §6, §7, §8, §9

[5] = test system: E. faecium CL 4931 (VanA); experiment: microbe, parasite or virus in culture; assay type: cell-based; set-up: CL4931 (in vitro testing): unit not given here; conditions: Tables 7 and 8; unit not given
Description: as §1, §2, §3, §4, §5, §6, §7, §8, §9

Compound | CL4877 (in vitro testing) [1] | Mean [2] | CL5242 (in vitro testing) [3] | CL5053 (in vitro testing) [4] | CL4931 (in vitro testing) [5]
CNC(CC(C)C)C(=O)NC1C(=O)NC(CC(N)=O)C(=O)NC2C(=O)NC3C(=O)NC(C(=O)NC(C(=O)O)c4cc(O)cc(O)c4-c4cc3ccc4O)C(O)c3ccc(c(Cl)c3)Oc3cc2cc(c3OC2OC(CNCC(C)C)C(O)C(O)C2OC2CC(C)(NCc3ccc(OCc4ccc(Cl)c(Cl)c4)cc3)C(O)C(C)O2)Oc2ccc(cc2Cl)C1O (stereo not drawn) [Compound 159] | 4 | 10.0 | 4 | 16 | 16
CNC(CC(C)C)C(=O)NC1C(=O)NC(CC(N)=O)C(=O)NC2C(=O)NC3C(=O)NC(C(=O)NC(C(=O)O)c4cc(O)cc(O)c4-c4cc3ccc4O)C(O)c3ccc(c(Cl)c3)Oc3cc2cc(c3OC2OC(CNCCCN3CCCC3)C(O)C(O)C2OC2CC(C)(NCc3ccc(OCc4ccc(Cl)c(Cl)c4)cc3)C(O)C(C)O2)Oc2ccc(cc2Cl)C1O (stereo not drawn) [Compound 160] | 16 | 13.0 | 4 | 16 | 16
CNC(CC(C)C)C(=O)NC1C(=O)NC(CC(N)=O)C(=O)NC2C(=O)NC3C(=O)NC(C(=O)NC(C(=O)O)c4cc(O)cc(O)c4-c4cc3ccc4O)C(O)c3ccc(c(Cl)c3)Oc3cc2cc(c3OC2OC(CNCCCN)C(O)C(O)C2OC2CC(C)(NCc3ccc(OCc4ccc(Cl)c(Cl)c4)cc3)C(O)C(C)O2)Oc2ccc(cc2Cl)C1O (stereo not drawn) [Compound 161] | 16 | 13.0 | 4 | 16 | 16
CNC(CC(C)C)C(=O)NC1C(=O)NC(CC(N)=O)C(=O)NC2C(=O)NC3C(=O)NC(C(=O)NC(C(=O)O)c4cc(O)cc(O)c4-c4cc3ccc4O)C(O)c3ccc(c(Cl)c3)Oc3cc2cc(c3OC2OC(CN3CCCC3)C(O)C(O)C2OC2CC(C)(NCc3ccc(OCc4ccc(Cl)c(Cl)c4)cc3)C(O)C(C)O2)Oc2ccc(cc2Cl)C1O (stereo not drawn) [Compound 163] | 2 | 13.5 | 4 | 32 | 16
CNC(CC(C)C)C(=O)NC1C(=O)NC(CC(N)=O)C(=O)NC2C(=O)NC3C(=O)NC(C(=O)NC(C(=O)O)c4cc(O)cc(O)c4-c4cc3ccc4O)C(O)c3ccc(c(Cl)c3)Oc3cc2cc(c3OC2OC(CNC3CC3)C(O)C(O)C2OC2CC(C)(NCc3ccc(OCc4ccc(Cl)c(Cl)c4)cc3)C(O)C(C)O2)Oc2ccc(cc2Cl)C1O (stereo not drawn) [Compound 165] | 16 | 14.0 | 8 | 16 | 16
CNC(CC(C)C)C(=O)NC1C(=O)NC(CC(N)=O)C(=O)NC2C(=O)NC3C(=O)NC(C(=O)NC(C(=O)O)c4cc(O)cc(O)c4-c4cc3ccc4O)C(O)c3ccc(c(Cl)c3)Oc3cc2cc(c3OC2OC(CN3CCC(N(C)C)C3)C(O)C(O)C2OC2CC(C)(NCc3ccc(OCc4ccc(Cl)c(Cl)c4)cc3)C(O)C(C)O2)Oc2ccc(cc2Cl)C1O (stereo not drawn) [Compound 166] | 32 | 14.5 | 2 | 16 | 8
CNC(CC(C)C)C(=O)NC1C(=O)NC(CC(N)=O)C(=O)NC2C(=O)NC3C(=O)NC(C(=O)NC(C(=O)O)c4cc(O)cc(O)c4-c4cc3ccc4O)C(O)c3ccc(c(Cl)c3)Oc3cc2cc(c3OC2OC(CN3CCNCC3)C(O)C(O)C2OC2CC(C)(NCc3ccc(OCc4ccc(Cl)c(Cl)c4)cc3)C(O)C(C)O2)Oc2ccc(cc2Cl)C1O (stereo not drawn) [Compound 167] | 32 | 15.0 | 4 | 16 | 8
CNC(CC(C)C)C(=O)NC1C(=O)NC(CC(N)=O)C(=O)NC2C(=O)NC3C(=O)NC(C(=O)NC(C(=O)O)c4cc(O)cc(O)c4-c4cc3ccc4O)C(O)c3ccc(c(Cl)c3)Oc3cc2cc(c3OC2OC(CN3CCCCC3)C(O)C(O)C2OC2CC(C)(NCc3ccc(OCc4ccc(Cl)c(Cl)c4)cc3)C(O)C(C)O2)Oc2ccc(cc2Cl)C1O (stereo not drawn) [Compound 168] | 1 | 18.3 | 8 | 16 | 32
CNC(CC(C)C)C(=O)NC1C(=O)NC(CC(N)=O)C(=O)NC2C(=O)NC3C(=O)NC(C(=O)NC(C(=O)O)c4cc(O)cc(O)c4-c4cc3ccc4O)C(O)c3ccc(c(Cl)c3)Oc3cc2cc(c3OC2OC(CN3CCOCC3)C(O)C(O)C2OC2CC(C)(NCc3ccc(OCc4ccc(Cl)c(Cl)c4)cc3)C(O)C(C)O2)Oc2ccc(cc2Cl)C1O (stereo not drawn) [Compound 169] | 1 | 18.3 | 8 | 32 | 32
CNC(CC(C)C)C(=O)NC1C(=O)NC(CC(N)=O)C(=O)NC2C(=O)NC3C(=O)NC(C(=O)NC(C(=O)O)c4cc(O)cc(O)c4-c4cc3ccc4O)C(O)c3ccc(c(Cl)c3)Oc3cc2cc(c3OC2OC(CN3CCC(N(C)C)CC3)C(O)C(O)C2OC2CC(C)(NCc3ccc(OCc4ccc(Cl)c(Cl)c4)cc3)C(O)C(C)O2)Oc2ccc(cc2Cl)C1O (stereo not drawn) [Compound 170] | 32 | 22.0 | 8 | 32 | 16
CNC(CC(C)C)C(=O)NC1C(=O)NC(CC(N)=O)C(=O)NC2C(=O)NC3C(=O)NC(C(=O)NC(C(=O)O)c4cc(O)cc(O)c4-c4cc3ccc4O)C(O)c3ccc(c(Cl)c3)Oc3cc2cc(c3OC2OC(CN)C(O)C(O)C2OC2CC(C)(NCc3ccc(OCc4ccc(Cl)cc4)cc3)C(O)C(C)O2)Oc2ccc(cc2Cl)C1O (stereo not drawn) [Compound 171] | 16 | 7.25 | 1 | 8 | 4
CNC(CC(C)C)C(=O)NC1C(=O)NC(CC(N)=O)C(=O)NC2C(=O)NC3C(=O)NC(C(=O)NC(C(=O)O)c4cc(O)cc(O)c4-c4cc3ccc4O)C(O)c3ccc(c(Cl)c3)Oc3cc2cc(c3OC2OC(CN)C(O)C(O)C2OC2CC(C)(NCc3ccc(OCc4cccc(Cl)c4)cc3)C(O)C(C)O2)Oc2ccc(cc2Cl)C1O (stereo not drawn) [Compound 172] | >16 | 12.5 | 2 | 16 | 16

Reference: patent US6841661B2, “Glycopeptide antibacterial compounds, compositions containing same and methods of using same” (Princeton Univerisity, priority 1999, dated 2005)
